Assay results taken from PMC2941777 (Molecular pharmaceutics, 2009).
Read-outs that look alike come from different tables or passages of the source. Marks after values point to notes of the source that are not given here.

Columns and labels:
[1] = test system: Caco-2 cell membranes; conditions: cited from earlier work
[2] = test system: UDP-glucuronosyltransferases (UGT); experiment: in vitro; conditions: Wistar, rat, pH 7.4
[3] = test system: UDP-glucuronosyltransferases (UGT), rat liver microsomes; experiment: Glucuronidation of naringenin in rat liver microsomes
[4] = test system: efflux transporters Mrp2 and Bcrp1; conditions: 50 μM MK-571 and 40 μM dipyridamole in perfusate; after 90 min; p<0.05
[5] = molecular target: efflux transporters Mrp2 and Bcrp1 (Rattus norvegicus, UniProt Q63120); assay type: in vivo; conditions: ileum; 50 μM MK-571 with 40 μM dipyridamole
[6] = test system: efflux transporters Mrp2 and Bcrp1; assay type: in vivo, rat; conditions: 10 μM naringenin
[7] = assay type: in vivo, rat; conditions: 10 μM naringenin perfusate
[8] = test system: UDP-glucuronosyltransferases (UGT), rat jejunum microsomes; experiment: Glucuronidation of naringenin in rat jejunum microsomes
[9] = test system: UDP-glucuronosyltransferases (UGT); experiment: as above; conditions: Wistar, rat, pH 7.4
[10] = test system: UDP-glucuronosyltransferases (UGT); experiment: Glucuronidation of naringenin in rat liver microsomes; conditions: Wistar, rat, pH 7.4
[11] = test system: UDP-glucuronosyltransferases (UGT), rat colon microsomes; experiment: Glucuronidation of naringenin in rat colon microsomes; assay type: in vitro ADME
[12] = test system: UDP-glucuronosyltransferases (UGT); experiment: as above; assay type: in vitro ADME; conditions: Wistar, rat, pH 7.4
[13] = test system: UDP-glucuronosyltransferases (UGT), rat ileum microsomes; experiment: Glucuronidation of naringenin in rat ileum microsomes
[14] = test system: UDP-glucuronosyltransferases (UGT); experiment: as above; conditions: Wistar, rat, pH 7.4
[15] = cited from earlier work
[16] = Steady-state blood concentration after intestinal perfusion; assay type: in vivo, rat; conditions: tail vein blood after perfusion with 10 μM naringenin for 2.5 h

Sequence of efflux transporters Mrp2 and Bcrp1 (Rattus norvegicus, UniProt Q63120) (Q63120 whole entry): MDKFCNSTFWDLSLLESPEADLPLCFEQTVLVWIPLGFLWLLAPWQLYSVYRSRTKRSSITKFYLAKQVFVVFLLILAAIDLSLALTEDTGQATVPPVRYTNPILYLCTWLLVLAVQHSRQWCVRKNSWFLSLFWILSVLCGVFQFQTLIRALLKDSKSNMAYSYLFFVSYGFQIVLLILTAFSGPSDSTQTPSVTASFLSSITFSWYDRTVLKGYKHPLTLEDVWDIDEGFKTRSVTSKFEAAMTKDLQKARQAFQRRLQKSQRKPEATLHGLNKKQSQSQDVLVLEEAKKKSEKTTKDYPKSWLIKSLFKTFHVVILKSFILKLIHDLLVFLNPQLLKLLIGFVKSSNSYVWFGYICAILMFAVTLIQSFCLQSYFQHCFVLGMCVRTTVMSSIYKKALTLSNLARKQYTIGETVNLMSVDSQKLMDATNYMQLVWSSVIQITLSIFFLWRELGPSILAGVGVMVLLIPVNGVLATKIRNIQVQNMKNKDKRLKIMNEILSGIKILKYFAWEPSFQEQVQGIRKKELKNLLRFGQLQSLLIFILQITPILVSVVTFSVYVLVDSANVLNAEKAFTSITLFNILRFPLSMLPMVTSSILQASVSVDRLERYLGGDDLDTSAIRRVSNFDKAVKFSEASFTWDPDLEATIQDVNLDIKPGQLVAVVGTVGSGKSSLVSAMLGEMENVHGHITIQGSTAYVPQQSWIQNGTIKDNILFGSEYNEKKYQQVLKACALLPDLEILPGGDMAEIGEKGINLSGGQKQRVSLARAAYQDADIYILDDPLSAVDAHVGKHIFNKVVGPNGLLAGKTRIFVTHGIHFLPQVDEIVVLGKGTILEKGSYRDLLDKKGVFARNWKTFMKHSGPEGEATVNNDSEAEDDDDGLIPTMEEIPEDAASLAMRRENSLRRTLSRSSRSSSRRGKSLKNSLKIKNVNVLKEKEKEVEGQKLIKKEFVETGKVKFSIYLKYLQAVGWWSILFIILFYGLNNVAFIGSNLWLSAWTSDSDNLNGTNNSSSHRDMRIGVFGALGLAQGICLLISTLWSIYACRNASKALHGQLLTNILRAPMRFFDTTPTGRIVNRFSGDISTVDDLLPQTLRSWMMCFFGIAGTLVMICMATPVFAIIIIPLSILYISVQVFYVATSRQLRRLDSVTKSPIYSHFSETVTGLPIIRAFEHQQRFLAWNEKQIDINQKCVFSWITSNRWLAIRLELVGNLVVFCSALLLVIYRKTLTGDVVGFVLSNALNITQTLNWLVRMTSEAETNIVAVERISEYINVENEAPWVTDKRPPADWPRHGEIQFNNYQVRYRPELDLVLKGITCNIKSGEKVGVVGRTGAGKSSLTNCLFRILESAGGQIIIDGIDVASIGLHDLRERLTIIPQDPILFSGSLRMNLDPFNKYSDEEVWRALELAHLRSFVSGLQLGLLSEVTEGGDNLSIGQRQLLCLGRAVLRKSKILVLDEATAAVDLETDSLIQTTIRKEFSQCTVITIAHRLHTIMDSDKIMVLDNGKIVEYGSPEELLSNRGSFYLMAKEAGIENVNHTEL

OCCN(CCO)c1nc(N2CCCCC2)c2nc(N(CCO)CCO)nc(N3CCCCC3)c2n1 [dipyridamole, Dipyridamole]
permeability across Caco-2 cell membranes [1]: ~1e-05 cm/s

CN(C)C(=O)CCSC(SCCC(=O)O)c1cccc(/C=C/c2ccc3ccc(Cl)cc3n2)c1 (centres unmarked) [MK-571]
inhibition at 40 min, 50 μM [2]: 50%
effect on metabolism rate of naringenin, MK-571 and dipyridamole used together ([3]; 10 μM naringenin, p < 0.05 vs control): decreased significantly
effect on the biliary excretion of aglycone, inhibitors used simultaneously [4]: increased
decrease in dipyridamole-stimulated glucuronide efflux by MK-571 [5]: more than 80%
effect on the absorption of naringenin, two inhibitors used together ([6]; 50 μM MK-571 + 40 μM dipyridamole): did not change
effect on the efflux of glucuronides in duodenum and jejunum, two inhibitors used together ([6]; 50 μM MK-571 + 40 μM dipyridamole, p < 0.05): decreased substantially
effect of inhibitor on the absorption of naringenin ([6]; inhibitor alone (50 μM MK-571 or 40 μM dipyridamole), four regions of intestine): no effect
permeability across Caco-2 cell membranes [1]: ~1e-05 cm/s

O=C1C[C@@H](c2ccc(O)cc2)Oc2cc(O)cc(O)c21 [naringenin, Naringenin]
amounts of naringenin absorbed (% of perfused amounts or Mtotal) ([7]; colon): 68%
amounts of naringenin absorbed (% of perfused amounts or Mtotal) ([7]; duodenum): 47%
amounts of naringenin absorbed (% of perfused amounts or Mtotal) ([7]; jejunum): 39%
amounts of naringenin absorbed (% of perfused amounts or Mtotal) ([7]; terminal ileum): 42%
R (autoact only), rate of enzyme activity activation [8]: 0.39
Vmax-d (maximum activation of enzyme activity) [8]: 5.53 nmol/min/mg protein
Vmax-o (intrinsic enzyme activity) [8]: 2.00 nmol/min/mg protein
Vmax ([8]; sum of Vmax-0 and Vmax-d): 7.53* nmol/min/mg protein
Km [9]: 3.62 µM
Km [10]: 13.4 µM
R (autoact only), rate of enzyme activity activation [3]: 0.38
Vmax-d (maximum activation of enzyme activity) [3]: 7.40 nmol/min/mg protein
Vmax-o (intrinsic enzyme activity) [3]: 5.83 nmol/min/mg protein
Vmax ([3]; sum of Vmax-0 and Vmax-d): 13.23* nmol/min/mg protein
R (autoact only), rate of enzyme activity activation [11]: 1.14
Vmax-d (maximum activation of enzyme activity) [11]: 5.49 nmol/min/mg protein
Vmax-o (intrinsic enzyme activity) [11]: 1.08 nmol/min/mg protein
Vmax ([11]; sum of Vmax-0 and Vmax-d): 6.56* nmol/min/mg protein
Km [12]: 21.2 µM
Vmax [13]: 1.99* nmol/min/mg protein
Km [14]: 2540 nM
bioavailability [15]: less than 10%
intact naringenin in blood [16]: not detected
